From patent publication US9340577B2, “HLA binding motifs and peptides and their uses” (priority 1992, dated 2016)
No end group written: not given here.

Experiments:
Experiment in all cases: biochemical
A*2902 = A*2902 (Homo sapiens, UniProt P04439, A270S/D101N/D185E/E176V/E277Q/E87Q/F33T/G231S/H175R/I121M/I218V/I322F/K168Q/L300P/L318F/M331R/P208A/P217A/Q86L/T323A/T345S/V100A/V358M); assay type: binding
A*3002 = A*3002 (Homo sapiens, UniProt P04439, D101N/D140H/D185E/E176R/F33S/G80R/H175R/K168Q/Q94H/R138E/R41S/V100E); assay type: binding
DR1 (DRB1*0101) = DR1 (DRB1*0101) (Homo sapiens, UniProt P01903+P01911, A100R/D57E/F55L/F60I/F76Y/I96L/L162R/M171V/P40L/Q125E/R42F/V115G/Y59C); assay type: binding
DR4w4 (DRB1*0401) = DR4w4 (DRB1*0401) (Homo sapiens, UniProt P01903+P01911, A100K/A169T/F76Y/I96L/K127E/L162R/M171V/N62H/P40V/Q125Y/R42H/S133A/S149N/S66Y/V115G/V209L/W38E); assay type: binding
DR7 (DRB1*0701) = DR7 (DRB1*0701) (Homo sapiens, UniProt P01903+P01911, A100R/A102G/A103Q/D57E/D86V/E43K/F76Y/K127E/L162R/M171V/P40G/Q125H/Q99D/R33Q/R42Y/R54Q/S133A/S66F/T210M/V115G/Y107V/Y59L/Y89S); assay type: binding
DRB1*0301 = DRB1*0301 (Homo sapiens, UniProt P01903+P01911, A100K/A102G/A103R/A169T/F55Y/I96L/K41T/L162R/M171V/P40S/Q125H/Q178H/Q39Y/R42S/S66N/T106N/T262R/W38E/Y61H); assay type: binding
DRB1*0405 = DRB1*0405 (Homo sapiens, UniProt P01903+P01911, A100R/A169T/D86S/F76Y/I96L/K127E/L162R/M171V/N62H/P40V/Q125Y/R42H/S133A/S149N/S66Y/V115G/V209L/W38E); assay type: binding
DRB1*0802 = DRB1*0802 (Homo sapiens, UniProt P01903+P01911, A100R/A103L/A169T/F76Y/H45Y/I96F/K41T/L162R/M171V/P40S/Q125H/Q178H/Q39Y/Q99D/R218S/R42G/S66Y/V115G/W38E); assay type: binding
DRB1*0901 = DRB1*0901 (Homo sapiens, UniProt P01903+P01911, A100R/A103E/D57H/D86V/F55Y/F60I/F76Y/I96F/K127E/L162R/M171V/P40D/Q125H/Q99R/R33Q/R42F/S133A/S66N/T210M/V115G/W38K/Y107V/Y59G/Y89S); assay type: binding
DRB1*1201 = DRB1*1201 (Homo sapiens, UniProt P01903+P01911, A100R/A169T/D57E/D86V/F55L/H45Y/K41T/L162R/M171V/P40S/Q125H/Q178H/Q39Y/Q99D/R42G/S66L/T262R/V114A/V67L/W38E/Y59H/Y61H/Y89S); assay type: binding
DRB1*1302 = DRB1*1302 (Homo sapiens, UniProt P01903+P01911, A100E/A169T/K41T/L162R/M171V/P40S/Q125H/Q178H/Q39Y/Q99D/R42S/S66N/T262R/V115G/W38E/Y61H); assay type: binding
DRB3*0101 = DRB3*0101 (Homo sapiens, UniProt P01903+P79483); assay type: binding
DRB4*0101 = DRB4*0101 (Homo sapiens, UniProt P01903+P13762, G164S); assay type: binding
DRB1*1101 = DRB1*1101 (Homo sapiens, UniProt P01903+P01911, A100R/A169T/A87E/I96F/K41T/L162R/M171V/P40S/Q125H/Q178H/Q39Y/Q99D/R42S/S66Y/T262R/V115G/W38E); conditions: Binding affinity DRB1 *1101
DRB5*0101 = DRB5*0101 (Homo sapiens, UniProt P01903+Q30154); conditions: Binding affinity DRB5 *0101
DRB1*1501 = DRB1*1501 (Homo sapiens, UniProt P01903+P01911); assay type: binding
HLA-A1 (A*0101) = HLA-A1 (A*0101) (Homo sapiens, UniProt P04439, A114D/A174V/A182V/D101N/D185E/E176A/E190D/L180R/Q94H/R68K/S129P/T187R/V100A/V91M/W191G); assay type: binding

Chain of A*3002 (P04439 whole entry, looked up, the tested form may be a part, stated change not applied): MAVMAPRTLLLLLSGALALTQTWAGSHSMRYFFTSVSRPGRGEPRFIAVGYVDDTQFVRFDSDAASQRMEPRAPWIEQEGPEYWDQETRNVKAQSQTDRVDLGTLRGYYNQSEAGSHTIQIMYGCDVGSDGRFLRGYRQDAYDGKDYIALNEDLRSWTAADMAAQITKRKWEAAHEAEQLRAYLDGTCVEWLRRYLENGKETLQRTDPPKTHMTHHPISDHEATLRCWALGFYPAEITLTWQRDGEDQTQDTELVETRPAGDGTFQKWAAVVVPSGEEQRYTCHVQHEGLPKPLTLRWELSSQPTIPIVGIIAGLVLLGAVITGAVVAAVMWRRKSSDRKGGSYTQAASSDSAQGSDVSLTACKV
Chain of DRB1*1302 (P01903 26-254 limits assumed, other chains not shown): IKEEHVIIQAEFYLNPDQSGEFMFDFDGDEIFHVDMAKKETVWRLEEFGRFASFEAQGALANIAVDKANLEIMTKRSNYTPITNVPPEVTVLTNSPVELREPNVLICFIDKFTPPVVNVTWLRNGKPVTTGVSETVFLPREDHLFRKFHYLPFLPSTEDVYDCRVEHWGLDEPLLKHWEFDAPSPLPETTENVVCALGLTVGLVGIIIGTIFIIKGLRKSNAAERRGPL
Chain of DRB1*0301 (P01903 26-254 limits assumed, other chains not shown): as above
Chain of DRB1*1101 (P01903 26-254 limits assumed, other chains not shown): as above

Sequence | IC50 (A*2902) [µM] | IC50 (A*3002) [µM] | IC50 (DR1 (DRB1*0101)) [µM] | IC50 (DR4w4 (DRB1*0401)) [µM] | IC50 (DR7 (DRB1*0701)) [µM] | IC50 (DRB1*0301) [µM] | IC50 (DRB1*0405) [µM] | IC50 (DRB1*0802) [µM] | IC50 (DRB1*0901) [µM] | IC50 (DRB1*1201) [µM] | IC50 (DRB1*1302) [µM] | IC50 (DRB3*0101) [µM] | IC50 (DRB4*0101) [µM] | IC50 (DRB1*1101) [µM] | IC50 (DRB5*0101) [µM] | IC50 (DRB1*1501) [µM] | IC50 (HLA-A1 (A*0101)) [µM]
WFSITNWLWY [Peptide 9015.0159] | 0.03 | – | – | – | – | – | – | – | – | – | – | – | – | – | – | – | –
NSNTKATLLY [Peptide 1580.16] | 0.299 | 0.47 | – | – | – | – | – | – | – | – | – | – | – | – | – | – | –
SEVYDFVFADLRIVY [Peptide 1543.48] | – | – | 0.412 | 0.62 | 0.051 | 0.0057 | 2.92 | 4.04 | 0.033 | 8.09 | 0.046 | 0.558 | 1.42 | > 20 | 2.35 | – | –
KERHVNANKRFHNIM [Peptide 1543.59] | – | – | 0.413 | 0.055 | – | 1.35 | 0.026 | 1.23 | 2.85 | 0.26 | 0.0052 | > 20 | 8.48 | 0.083 | 0.502 | 12.9 | –
YRHYQYSLYGKTLEE [Peptide 1543.58] | – | – | 0.011 | 0.0041 | 0.146 | > 20 | 0.025 | 0.41 | 0.273 | 12 | 0.026 | > 20 | 2.54 | 0.953 | 0.64 | 2.9 | –
RVCLLFYSKVRKYRY [Peptide 1543.54] | – | – | – | 0.299 | 0.232 | 0.071 | 0.233 | – | 0.656 | 0.603 | 0.089 | 0.868 | 7.74 | 4.26 | 3.85 | 0.717 | –
LYCYEQLSDSSDEDE [Peptide 1543.13] | – | – | 5.69 | 1.12 | 9.77 | > 20 | 0.089 | > 20 | > 20 | > 20 | > 20 | > 20 | 12.7 | 3.38 | > 20 | > 20 | –
TELNTSLQDIEITCV [Peptide 1543.34] | – | – | > 20 | > 20 | > 20 | > 20 | > 20 | 5.52 | > 20 | > 20 | 7.07 | > 20 | 0.922 | > 20 | > 20 | > 20 | –
ITKIQNFRVY [Peptide 9015.0173] | 1.8 | – | – | – | – | – | – | – | – | – | – | – | – | – | – | – | 9.47
QRFHNIRGRWTGRCM [Peptide 1543.27] | – | – | 0.036 | 2.9 | – | > 20 | 4.47 | 0.894 | > 20 | 14.6 | 5.31 | > 20 | 4.55 | 0.574 | 0.919 | 17.2 | –
WFDITKWLWY [Peptide 9015.0160] | – | 3.39 | – | – | – | – | – | – | – | – | – | – | – | – | – | – | –
LCVNSTASDLRTIQQ [Peptide 1543.15] | – | – | 1.58 | 0.063 | 0.723 | 6.23 | 0.49 | 4.38 | > 20 | 1.59 | – | > 20 | 2.11 | – | > 20 | > 20 | –
DGVSHAQLPARRAEP [Peptide 1543.18] | – | – | – | > 20 | > 20 | 2.48 | > 20 | > 20 | > 20 | > 20 | > 20 | > 20 | 1.93 | > 20 | 0.392 | > 20 | –
QSTQVDIRILQELLM [Peptide 1543.11] | – | – | 0.544 | 4.56 | 5.39 | 2.71 | 3.99 | – | > 20 | 2.34 | 0.607 | > 20 | 0.18 | 6.48 | > 20 | > 20 | –
RHLDKKQRFHNIRGR [Peptide 1543.26] | – | – | 0.556 | 6.2 | 0.591 | 5.21 | 1.55 | 7.72 | > 20 | > 20 | > 20 | > 20 | > 20 | – | 5.76 | > 20 | –
GCWRQTSREPRESTV [Peptide 1543.46] | – | – | 2.64 | 1.84 | 0.072 | 0.902 | 2.3 | 0.356 | 3.2 | > 20 | > 20 | > 20 | > 20 | 0.144 | 4.27 | > 20 | –
SSSKVSQNY [Peptide 9015.0011] | 1.76 | 0.032 | – | – | – | – | – | – | – | – | – | – | – | – | – | – | –
CIHSTATDLRTLQQM [Peptide 1543.45] | – | – | 0.448 | 0.014 | 0.459 | 0.213 | 0.37 | 0.493 | 19 | 4.51 | 2.99 | > 20 | 0.159 | – | 2.45 | 15 | –
CSMSYTWTGA [Peptide 1489.14] | > 20 | – | – | – | – | – | – | – | – | – | – | – | – | – | – | – | > 20
EDLRTLQQLFLSTLS [Peptide 1543.21] | – | – | 0.02 | 0.034 | 0.39 | 6.77 | 0.582 | 12.8 | 15.5 | 0.958 | 0.0075 | > 20 | 0.017 | 0.279 | > 20 | 0.141 | –
QERPRKLPQLCTELQ [Peptide 1543.22] | – | – | > 20 | 5.12 | > 20 | > 20 | > 20 | > 20 | > 20 | 11.7 | > 20 | > 20 | 0.081 | > 20 | > 20 | > 20 | –
LYDQLIHMHY [Peptide 9018.0034] | 0.123 | 0.055 | – | – | – | – | – | – | – | – | – | – | – | – | – | – | –
VTFDPIPIHY [Peptide 9015.0153] | 0.619 | 0.38 | – | – | – | – | – | – | – | – | – | – | – | – | – | – | –
LTDQLIHMHY [Peptide 9018.0032] | – | 0.35 | – | – | – | – | – | – | – | – | – | – | – | – | – | – | 0.0066
